Test results taken from patent publication US4684664A, “Derivatives of β-(4-isocyano-1,2,3,4-diepoxycyclopentyl) acrylic acid” (Kureha Kagaku Kogyo Kabushiki Kaisha, priority 1984, dated 1987).
In brackets after ≈: the same amount, converted by molar mass.

Legend:
[1] = tested on: Staphylococcus aureus FDA 209PJc-1; assay: Antibacterial activity, agar-dilution MIC, organism No. 1; format: cell-based; conditions: Staphylococcus aureus, FDA209PJC1; Organism No. 1, bouillon-agar; read-out: Minimum Inhibitory Concentration
Summary of the method: (§1)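 Bouillon-agar culture medium served for the agar-dilution test; inhibitory endpoint expressed per ml of medium in μg.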

[2] = tested on: Staphylococcus aureus Terajima; assay: Antibacterial activity, agar-dilution MIC, organism No. 2; format: cell-based; conditions: Staphylococcus aureus; Organism No. 2, bouillon-agar; read-out: Minimum Inhibitory Concentration
Summary of the method: as §1

[3] = tested on: Staphylococcus aureus MS 353; assay: Antibacterial activity, agar-dilution MIC, organism No. 3; format: cell-based; conditions: Staphylococcus aureus, MS353; Organism No. 3, bouillon-agar; read-out: Minimum Inhibitory Concentration
Summary of the method: as §1

[4] = tested on: Streptococcus pyogenes Cook; assay: Antibacterial activity, agar-dilution MIC, organism No. 4; format: cell-based; conditions: Streptococcus pyogenes; Organism No. 4, bouillon-agar; read-out: Minimum Inhibitory Concentration
Summary of the method: as §1

[5] = tested on: Escherichia coli NIHJ-JC-2; assay: Antibacterial activity, agar-dilution MIC, organism No. 5; format: cell-based; conditions: Escherichia coli, NIHJJC2; Organism No. 5, bouillon-agar; read-out: Minimum Inhibitory Concentration
Summary of the method: as §1

[6] = tested on: Escherichia coli K12 C600 IAM 1264; assay: Antibacterial activity, agar-dilution MIC, organism No. 6; format: cell-based; conditions: Escherichia coli, IAM1264; Organism No. 6, bouillon-agar; read-out: Minimum Inhibitory Concentration
Summary of the method: as §1

[7] = tested on: Klebsiella pneumoniae PCI-602; assay: Antibacterial activity, agar-dilution MIC, organism No. 7; format: cell-based; conditions: Klebsiella pneumoniae, PCI602; Organism No. 7, bouillon-agar; read-out: Minimum Inhibitory Concentration
Summary of the method: as §1

[8] = tested on: Salmonella typhimurium IID 971; assay: Antibacterial activity, agar-dilution MIC, organism No. 8; format: cell-based; conditions: Salmonella enterica; Organism No. 8, bouillon-agar; read-out: Minimum Inhibitory Concentration
Summary of the method: as §1

Salmonella typhi 901 = assay: Antibacterial activity, agar-dilution MIC, organism No. 9; format: cell-based; conditions: Salmonella enterica, TYPHI, read-out: Minimum Inhibitory Concentration
Summary of the method: as §1

[9] = tested on: Salmonella paratyphi-A 1015; assay: Antibacterial activity, agar-dilution MIC, organism No. 10; format: cell-based; conditions: Salmonella enterica, PARATYPHI, read-out: Minimum Inhibitory Concentration
Summary of the method: as §1

[10] = tested on: Salmonella shottmuelleri 8006; assay: Antibacterial activity, agar-dilution MIC, organism No. 11; format: cell-based; conditions: Salmonella, 8006; Organism No. 11, bouillon-agar; read-out: Minimum Inhibitory Concentration
Summary of the method: as §1

[11] = tested on: Salmonella enteritidis G 14; assay: Antibacterial activity, agar-dilution MIC, organism No. 12; format: cell-based; conditions: Salmonella enterica, ENTERITIDIS; Organism No. 12, bouillon-agar; read-out: Minimum Inhibitory Concentration
Summary of the method: as §1

[12] = tested on: Serratia marcescens IAM 1184; assay: Antibacterial activity, agar-dilution MIC, organism No. 13; format: cell-based; conditions: Serratia marcescens, IAM1184; Organism No. 13, bouillon-agar; read-out: Minimum Inhibitory Concentration
Summary of the method: as §1

[13] = tested on: Bacillus subtilis ATCC 6633; assay: Antibacterial activity, agar-dilution MIC, organism No. 14; format: cell-based; conditions: Bacillus subtilis, ATCC6633; Organism No. 14, bouillon-agar; read-out: Minimum Inhibitory Concentration
Summary of the method: as §1

[14] = tested on: Pseudomonas aeruginosa IFO 3445; assay: Antibacterial activity, agar-dilution MIC, organism No. 15; format: cell-based; conditions: Pseudomonas aeruginosa, IFO3445; Organism No. 15, bouillon-agar; read-out: Minimum Inhibitory Concentration
Summary of the method: as §1

[15] = tested on: Pseudomonas aeruginosa NCTC 10490; assay: Antibacterial activity, agar-dilution MIC, organism No. 16; format: cell-based; conditions: Pseudomonas aeruginosa, NCTC10490; Organism No. 16, bouillon-agar; read-out: Minimum Inhibitory Concentration
Summary of the method: as §1

[16] = tested on: Pseudomonas aeruginosa PAO 1; assay: Antibacterial activity, agar-dilution MIC, organism No. 17; format: cell-based; conditions: Pseudomonas aeruginosa, PAO1; Organism No. 17, bouillon-agar; read-out: Minimum Inhibitory Concentration
Summary of the method: as §1

[17] = tested on: Proteus morganii IFO 3848; assay: Antibacterial activity, agar-dilution MIC, organism No. 18; format: cell-based; conditions: Morganella morganii, IFO3848; Organism No. 18, bouillon-agar; read-out: Minimum Inhibitory Concentration
Summary of the method: as §1

[18] = tested on: Proteus mirabilis IFO 3849; assay: Antibacterial activity, agar-dilution MIC, organism No. 19; format: cell-based; conditions: Proteus mirabilis, IFO3849; Organism No. 19, bouillon-agar; read-out: Minimum Inhibitory Concentration
Summary of the method: as §1

Proteus vulgaris OX-19 = assay: Antibacterial activity, agar-dilution MIC, organism No. 20; format: cell-based; conditions: Proteus vulgaris, OX19; Organism No. 20, bouillon-agar; read-out: Minimum Inhibitory Concentration
Summary of the method: as §1

Proteus vulgaris HX-19 = assay: Antibacterial activity, agar-dilution MIC, organism No. 21; format: cell-based; conditions: Proteus vulgaris, HX19; Organism No. 21, bouillon-agar; read-out: Minimum Inhibitory Concentration
Summary of the method: as §1

[19] = tested on: Proteus rettgeri IFO 3850; assay: Antibacterial activity, agar-dilution MIC, organism No. 22; format: cell-based; conditions: Providencia rettgeri, IFO3850; Organism No. 22, bouillon-agar; read-out: Minimum Inhibitory Concentration
Summary of the method: as §1

[20] = tested on: Enterobacter aerogenes ATCC 13048; assay: Antibacterial activity, agar-dilution MIC, organism No. 23; format: cell-based; conditions: Klebsiella aerogenes, ATCC13048; Organism No. 23, bouillon-agar; read-out: Minimum Inhibitory Concentration
Summary of the method: as §1

Enterobacter cloacae 963 = assay: Antibacterial activity, agar-dilution MIC, organism No. 24; format: cell-based; conditions: Enterobacter cloacae, 963; Organism No. 24, bouillon-agar; read-out: Minimum Inhibitory Concentration
Summary of the method: as §1

[21] = tested on: Micrococcus luteus ATCC 9341; assay: Antibacterial activity, agar-dilution MIC, organism No. 25; format: cell-based; conditions: Micrococcus luteus, ATCC9341; Organism No. 25, bouillon-agar; read-out: Minimum Inhibitory Concentration
Summary of the method: as §1

[22] = tested on: Streptococcus pyogenes IFO 3340; assay: Antibacterial activity, agar-dilution MIC, organism No. 26; format: cell-based; conditions: Streptococcus pyogenes, IFO3340; Organism No. 26, bouillon-agar; read-out: Minimum Inhibitory Concentration
Summary of the method: as §1

[23] = tested on: Streptococcus faecium IFO 3826; assay: Antibacterial activity, agar-dilution MIC, organism No. 27; format: cell-based; conditions: Enterococcus faecium, IFO3826; Organism No. 27, bouillon-agar; read-out: Minimum Inhibitory Concentration
Summary of the method: as §1

[24] = tested on: Mycoplasma pneumoniae IID817; assay: Antimycoplasmal activity, MIC by phenol red colour change, organism No. 28; format: cell-based; conditions: Mycoplasma, IID817; Organism No. 28, PPLO broth + 1% glucose, 37° C.; read-out: Minimum Inhibitory Concentration (MIC)
Protocol: Mycoplasma pneumoniae IID817 was used as the test microorganism in a culture medium prepared by adding 1% of glucose to "PPLO broth (manufactured by Difco Co.) liquid culture medium" at 37° C. with phenol red as an indicator, thereby culturing the test microorganism.

[25] = tested on: Candida albicans IAM 4905; assay: Antifungal activity, agar-dilution MIC, organism No. 29; format: cell-based; conditions: Candida albicans, IAM4905; Organism No. 29, bouillon-agar; read-out: Minimum Inhibitory Concentration
Summary of the method: as §1

[26] = tested on: Aspergillus niger IFO 6342; assay: Antifungal activity, agar-dilution MIC, organism No. 30; format: cell-based; conditions: Aspergillus niger, IFO6342; Organism No. 30, bouillon-agar; read-out: Minimum Inhibitory Concentration
Summary of the method: as §1

[27] = Stability in a non-solvent state; format: physicochemical

Structure (SMILES)	MIC [1] [µg/mL]	MIC [2] [µg/mL]	MIC [3] [µg/mL]	MIC [4] [µg/mL]	MIC [5] [µg/mL]	MIC [6] [µg/mL]	MIC [7] [µg/mL]	MIC [8] [µg/mL]	MIC (Salmonella typhi 901) [µg/mL]	MIC [9] [µg/mL]	MIC [10] [µg/mL]	MIC [11] [µg/mL]	MIC [12] [µg/mL]	MIC [13] [µg/mL]	MIC [14] [µg/mL]	MIC [15] [µg/mL]	MIC [16] [µg/mL]	MIC [17] [µg/mL]	MIC [18] [µg/mL]	MIC (Proteus vulgaris OX-19) [µg/mL]	also measured
[C-]#[N+]C12CC3(/C=C/C(=O)OCC)OC3C1O2 (stereo not drawn) [Compound No. 2, ethyl β-substituted acrylate]	12.5 (≈ 56.5 µM)	12.5 (≈ 56.5 µM)	12.5 (≈ 56.5 µM)	> 200	50 (≈ 226 µM)	25 (≈ 113 µM)	6.25 (≈ 28.3 µM)	25 (≈ 113 µM)	6.25 (≈ 28.3 µM)	6.25 (≈ 28.3 µM)	6.25 (≈ 28.3 µM)	6.25 (≈ 28.3 µM)	> 200	50 (≈ 226 µM)	> 200	> 200	> 200	6.25 (≈ 28.3 µM)	25 (≈ 113 µM)	6.25 (≈ 28.3 µM)	MIC (Proteus vulgaris HX-19): 0.2 µg/mL (≈ 0.904 µM); MIC [19]: > 200 µg/mL; MIC [20]: > 200 µg/mL; MIC (Enterobacter cloacae 963): > 200 µg/mL; MIC [21]: 1.56 µg/mL (≈ 7.05 µM); MIC [22]: 100 µg/mL (≈ 452 µM); MIC [23]: 12.5 µg/mL (≈ 56.5 µM); MIC [24]: < 0.2 µg/mL; MIC [25]: 3.13 µg/mL (≈ 14.1 µM); MIC [26]: 12.5 µg/mL (≈ 56.5 µM); stability (in words) [27]: decomposing and colouring tendency in a non-solvent state
[C-]#[N+]C12CC3(/C=C/C(=O)OCc4ccccc4)OC3C1O2 (stereo not drawn) [Compound No. 10, benzyl β-substituted acrylate]	0.39 (≈ 1.38 µM)	1.56 (≈ 5.51 µM)	0.39 (≈ 1.38 µM)	3.13 (≈ 11 µM)	6.25 (≈ 22.1 µM)	3.13 (≈ 11 µM)	< 0.1	3.13 (≈ 11 µM)	0.78 (≈ 2.75 µM)	0.78 (≈ 2.75 µM)	< 0.1	3.13 (≈ 11 µM)	12.5 (≈ 44.1 µM)	0.78 (≈ 2.75 µM)	> 100	> 100	> 100	0.39 (≈ 1.38 µM)	3.13 (≈ 11 µM)	< 0.1	MIC (Proteus vulgaris HX-19): < 0.1 µg/mL; MIC [19]: 6.25 µg/mL (≈ 22.1 µM); MIC [20]: > 100 µg/mL; MIC (Enterobacter cloacae 963): 50 µg/mL (≈ 177 µM); MIC [21]: < 0.1 µg/mL; MIC [22]: 3.13 µg/mL (≈ 11 µM); MIC [23]: 1.56 µg/mL (≈ 5.51 µM); MIC [24]: < 0.2 µg/mL; MIC [25]: 0.8 µg/mL (≈ 2.82 µM); MIC [26]: 1.56 µg/mL (≈ 5.51 µM); stability (in words) [27]: decomposed and coloured when left in a non-solvent state
[C-]#[N+]C12CC3(/C=C/C(=O)OCc4cc([N+](=O)[O-])ccc4O)OC3C1O2 (stereo not drawn) [Compound No. 17]	> 200	> 200	> 200	> 200	> 200	> 200	> 200	> 200	200 (≈ 581 µM)	> 200	> 200	> 200	> 200	> 200	> 200	> 200	> 200	> 200	> 200	> 200	MIC (Proteus vulgaris HX-19): > 200 µg/mL; MIC [19]: > 200 µg/mL; MIC [20]: > 200 µg/mL; MIC (Enterobacter cloacae 963): > 200 µg/mL; MIC [21]: 200 µg/mL (≈ 581 µM); MIC [22]: > 200 µg/mL; MIC [23]: > 200 µg/mL; MIC [24]: 100 µg/mL; MIC [25]: > 100 µg/mL; MIC [26]: > 100 µg/mL; stability (in words) [27]: tendency thereof of decomposition in a non-solvent state
